Values after ≈ are worked out from the molar mass of the structure shown. “Also recorded” adds a separate entry of the source. Like-named read-outs stand apart in the source and are kept apart here.
How the values were obtained:
[1] = system: BJ-TERT/LT/ST/RAS^V12 cells; experiment: Alamar blue growth inhibition in dilution series; type: cell-based, human; conditions: for IC90: Homo sapiens, alamar blue
[2] = system: BJ-TERT/LT/ST/RAS^V12 cells; experiment: Counter screening with iron chelators; type: cell-based, human; conditions: DFOM and three additional iron-binding compounds; 24 hours
Experimental: Cells were treated with iron chelators by transferring 4 μL of 1 mM deferoxamine mesylate (Calbiochem, cat.#252750), 500 μM compound 1a (Chembridge, cat.#5175092), 1 mM compound 2 (Ryan Scientific, cat.#LT01784723), or 100 μM compound 311 (Chembridge, cat.#5135701) in growth media to the assay plate. Then, 4 μL was transferred from the ‘10× lethal plate’ (described in ‘counter screening with biologically active compounds’) to the assay plate in order to induce cell death. Assay plates were incubated for 24 hours and alamar blue was added to the plates at a final concentration of 10%.

[3] = system: HL-60(TB); experiment: cells; conditions: Homo sapiens; for GI50: HL-60; for CC50: HL-60, read-out: LC 50%
[4] = system: CCRF-CEM; experiment: NCI60 anti-cancer screening; conditions: for GI50 / CC50: Homo sapiens; for CC50: read-out: LC 50%; for GI 100%: Leukemia
[5] = system: K-562; experiment: NCI60 anti-cancer screening; conditions: for GI50 / CC50: Homo sapiens; for GI50: K562; for CC50: K562, read-out: LC 50%
[6] = system: SNB-75; experiment: NCI60 anti-cancer screening; conditions: for GI50 / CC50: Homo sapiens; for GI50 / GI 100%: SNB-75; for CC50: SNB-75, read-out: LC 50%; for GI 100%: CNS Cancer
[7] = system: 786-0; experiment: NCI60 anti-cancer screening; conditions: for GI 100% / GI50: 786-0; for GI 100%: Renal Cancer; for GI50 / CC50: Homo sapiens; for CC50: 786-0, read-out: LC 50%
[8] = system: A498; experiment: NCI60 anti-cancer screening; conditions: for GI 100% / GI50: A498; for GI 100%: Renal Cancer; for GI50 / CC50: Homo sapiens; for CC50: A498, read-out: LC 50%
[9] = system: UO-31; experiment: NCI60 anti-cancer screening; conditions: for GI50 / CC50: Homo sapiens; for GI50 / GI 100%: UO-31; for CC50: UO-31, read-out: LC 50%; for GI 100%: Renal Cancer
[10] = system: NCI/ADR-RES; experiment: NCI60 anti-cancer screening; conditions: for GI 100%: Breast Cancer; for GI50 / CC50: Homo sapiens; for CC50: read-out: LC 50%
[11] = system: BT-549; experiment: NCI60 anti-cancer screening; conditions: for GI 100% / GI50: BT-549; for GI 100%: Breast Cancer; for GI50 / CC50: Homo sapiens; for CC50: BT-549, read-out: LC 50%
[12] = system: BJ-derived cell lines (BJ-TERT/LT/ST/RAS^V12 cells); experiment: Vi-Cell analysis (trypan blue exclusion); type: cell-based, human; conditions: 24 hours
Experimental: 200,000 cells were seeded in 6-well plates and treated with the indicated amount of 2-fold dilution series concentration of a candidate compound in 2 mL BJ growth medium. After 24 hours, cells were released with trypsin/EDTA, harvested in 1.1 mL growth medium, and transferred to a Vi-Cell (Beckman Coulter) disposable cup. After, trypan blue staining, 100 images of sample were taken and analysis of the images was carried out automatically by a Vi-Cell cell viability analyzer (Beckman Coulter).

[13] = system: OVCAR-3; conditions: Ovarian Cancer
[14] = system: RPMI-8226; experiment: NCI60 anti-cancer screening; conditions: for GI50 / CC50: Homo sapiens; for GI50 / GI 100%: RPMI-8226; for CC50: RPMI-8226, read-out: LC 50%; for GI 100%: Leukemia
[15] = system: NCI-H522; experiment: NCI60 anti-cancer screening; conditions: for GI50 / CC50: Homo sapiens; for GI50 / GI 100%: NCI-H522; for CC50: NCI-H522, read-out: LC 50%; for GI 100%: Non-small cell lung carcinoma
[16] = system: COLO 205; experiment: NCI60 anti-cancer screening; conditions: for GI 100% / GI50: COLO 205; for GI 100%: Colon Cancer; for GI50 / CC50: Homo sapiens; for CC50: COLO 205, read-out: LC 50%
[17] = system: SW-620; experiment: NCI60 anti-cancer screening; conditions: for GI50 / CC50: Homo sapiens; for GI50 / GI 100%: SW-620; for CC50: SW-620, read-out: LC 50%; for GI 100%: Colon Cancer
[18] = system: SF-539; experiment: NCI60 anti-cancer screening; conditions: for GI50 / CC50: Homo sapiens; for GI50 / GI 100%: SF-539; for CC50: SF-539, read-out: LC 50%; for GI 100%: CNS Cancer
[19] = system: MALME-3M; experiment: NCI60 anti-cancer screening; conditions: for GI50 / CC50: Homo sapiens, Malme-3M; for CC50: read-out: LC 50%; for GI 100%: MALME-3M, Melanoma
[20] = system: UACC-257; experiment: NCI60 anti-cancer screening; conditions: for GI50 / CC50: Homo sapiens; for GI50 / GI 100%: UACC-257; for CC50: UACC-257, read-out: LC 50%; for GI 100%: Melanoma
[21] = system: UACC-62; experiment: NCI60 anti-cancer screening; conditions: for GI50 / CC50: Homo sapiens; for GI50 / GI 100%: UACC-62; for CC50: UACC-62, read-out: LC 50%; for GI 100%: Melanoma
[22] = system: OVCAR-4; experiment: NCI60 anti-cancer screening; conditions: for GI50 / CC50: Homo sapiens; for GI50 / GI 100%: OVCAR-4; for CC50: OVCAR-4, read-out: LC 50%; for GI 100%: Ovarian Cancer
[23] = system: TK-10; experiment: NCI60 anti-cancer screening; conditions: for GI50 / CC50: Homo sapiens; for GI50 / GI 100%: TK-10; for CC50: TK-10, read-out: LC 50%; for GI 100%: Renal Cancer
[24] = system: DU-145; experiment: NCI60 anti-cancer screening; conditions: for GI 100% / GI50: DU-145; for GI 100%: Prostate Cancer; for GI50 / CC50: Homo sapiens; for CC50: DU-145, read-out: LC 50%
[25] = system: MCF-7; experiment: NCI60 anti-cancer screening; conditions: for GI50 / CC50: Homo sapiens; for GI50: MCF7; for CC50: MCF7, read-out: LC 50%; for GI 100%: MCF-7, Breast Cancer
[26] = system: T-47D; experiment: NCI60 anti-cancer screening; conditions: for GI50 / CC50: Homo sapiens, T47D; for CC50: read-out: LC 50%; for GI 100%: T-47D, Breast Cancer

COCCOC(=O)C1=C(C)NC2=C(C(=O)CC(c3ccc(Cl)cc3)C2)C1c1ccccc1F (centres unmarked) [Compound 3]
IC90 [1]: 10 µg/mL (≈ 21.3 µM) | effect of iron chelators on compound activity / induced cell death [2]: significantly inhibited | GI50 [3]: 9.8 µM | CC50 [3]: > 10 µM | GI50 [4]: 7.95 µM | CC50 [4]: > 10 µM | GI 100% [4]: >10 µM | GI50 [5]: 9.16 µM | CC50 [5]: > 10 µM | GI 100% ([5]; K-562, Leukemia): >10 µM | GI50 [6]: 9.61 µM | CC50 [6]: > 10 µM | GI 100% [6]: >10 µM | GI 100% [7]: >10 µM | GI50 [7]: 9.27 µM | CC50 [7]: > 10 µM | GI 100% [8]: >10 µM | GI50 [8]: 3.39 µM | CC50 [8]: > 10 µM | GI50 [9]: 6.82 µM | CC50 [9]: > 10 µM | GI 100% [9]: >10 µM | GI 100% [10]: >10 µM | GI50 [10]: 8.93 µM | CC50 [10]: > 10 µM | GI 100% [11]: >10 µM | GI50 [11]: 4.28 µM | CC50 [11]: > 10 µM

CCc1c(O)c2c(c(O)c1O[C@H]1O[C@@H](COC(C)=O)[C@H](OC(C)=O)[C@@H](CC(C)=O)[C@@H]1OC(C)=O)C(=O)C(O[C@@H]1O[C@H](COC(C)=O)[C@@H](OC(C)=O)[C@H](OC(C)=O)[C@H]1OC(C)=O)=C(O[C@@H]1O[C@H](COC(C)=O)[C@@H](OC(C)=O)[C@H](OC(C)=O)[C@H]1OC(C)=O)C2=O [Compound 6]
IC90 [1]: 2.5 µg/mL (≈ 1.99 µM) | potency and selectivity by trypan blue exclusion (in words) [12]: confirmed the potency and selectivity | GI50 [3]: 0.516 µM | CC50 [3]: 8.25 µM | GI 100% [13]: >10 µM | GI50 [4]: 0.115 µM | GI 100% [4]: 0.422 µM | GI50 [5]: 0.238 µM | CC50 [5]: > 10 µM | GI50 [14]: 2.37 µM | CC50 [14]: > 10 µM | GI 100% [14]: 6.77 µM | GI50 [15]: 0.49 µM | CC50 [15]: 5.12 µM | GI 100% [15]: 1.79 µM | GI 100% [16]: 1.26 µM | GI50 [16]: 0.232 µM | CC50 [16]: 4.78 µM | GI50 [17]: 0.271 µM | CC50 [17]: 3.9 µM | GI 100% [17]: 1.03 µM | GI50 [18]: 2.32 µM | CC50 [18]: 9.59 µM | GI 100% [18]: 4.71 µM | GI50 [19]: 0.261 µM | CC50 [19]: 2.8 µM | GI 100% [19]: 0.723 µM | GI50 [20]: 2.78 µM | CC50 [20]: > 10 µM | GI 100% [20]: >10 µM | GI50 [21]: 9.78 µM | CC50 [21]: > 10 µM | GI 100% [21]: >10 µM | GI50 [22]: 5.71 µM | CC50 [22]: > 10 µM | GI 100% [22]: >10 µM | GI 100% [7]: 5.54 µM | GI50 [7]: 2.51 µM | CC50 [7]: > 10 µM | GI50 [23]: 2.76 µM | CC50 [23]: > 10 µM | GI 100% [23]: >10 µM | GI 100% [24]: >10 µM | GI50 [24]: 5.28 µM | CC50 [24]: > 10 µM | GI50 [25]: 1.55 µM | CC50 [25]: 9.18 µM | GI 100% [25]: 3.78 µM | GI 100% [11]: 3.27 µM | GI50 [11]: 1.49 µM | CC50 [11]: 7.21 µM | GI50 [26]: 4.53 µM | CC50 [26]: 9.35 µM | GI 100% [26]: 2.06 µM

COC(=O)c1ccc(C2c3[nH]c4ccccc4c3CC(C(=O)OC)N2C(=O)CCl)cc1 (centres unmarked) [Compound 27]
concentration at which growth was inhibited (as low as) [1]: ≥ 0.01 µg/mL | concentration at which growth was inhibited (as low as) ([1]; 48 hours): ≥ 0.01 µg/mL | effect of iron chelators on compound activity / induced cell death [2]: suppressed by all of these iron chelators moderately; also recorded: significantly inhibited | potency and selectivity by trypan blue exclusion (in words) [12]: confirmed Compound 27 cell growth inhibition activity and selectivity | GI50 [3]: 0.28 µM | CC50 [3]: 1.2 µM | GI 100% [13]: 1.57 µM | GI50 [4]: 0.0195 µM | CC50 [4]: 0.0953 µM | GI 100% [4]: 0.0431 µM | GI50 [14]: 0.0431 µM | CC50 [14]: 6.99 µM | GI 100% [14]: 2.22 µM | GI50 [15]: 1.63 µM | CC50 [15]: 8.58 µM | GI 100% [15]: 3.74 µM | GI 100% [16]: 3.44 µM | GI50 [16]: 1.67 µM | CC50 [16]: 7.07 µM | GI50 [17]: 0.681 µM | CC50 [17]: 5.25 µM | GI 100% [17]: 2.09 µM | GI50 [18]: 0.118 µM | CC50 [18]: 0.492 µM | GI 100% [18]: 0.241 µM | GI50 [6]: 0.745 µM | CC50 [6]: > 10 µM | GI 100% [6]: 3.06 µM | GI50 [19]: 0.406 µM | CC50 [19]: 4.6 µM | GI 100% [19]: 1.53 µM | GI50 [20]: 1.37 µM | CC50 [20]: > 10 µM | GI 100% [20]: 7.46 µM | GI50 [21]: 1.21 µM | CC50 [21]: 5.04 µM | GI 100% [21]: 2.47 µM | GI50 [22]: 4.3 µM | CC50 [22]: > 10 µM | GI 100% [22]: >10 µM | GI 100% [7]: 0.473 µM | GI50 [7]: 0.0603 µM | CC50 [7]: 2.52 µM | GI 100% [8]: 4.52 µM | GI50 [8]: 1.83 µM | CC50 [8]: > 10 µM | GI50 [23]: 1.9 µM | CC50 [23]: 8.25 µM | GI 100% [23]: 3.96 µM | GI50 [9]: 0.02 µM | CC50 [9]: 0.0743 µM | GI 100% [9]: 0.0385 µM | GI 100% [24]: 1.4 µM | GI50 [24]: 0.308 µM | CC50 [24]: 4.01 µM | GI50 [25]: 0.782 µM | CC50 [25]: > 10 µM | GI 100% [25]: 3.98 µM | GI 100% [10]: >10 µM | GI50 [10]: 2.56 µM | CC50 [10]: > 10 µM | GI 100% [11]: 0.316 µM | GI50 [11]: 0.131 µM | CC50 [11]: 0.765 µM | GI50 [26]: 1.64 µM | CC50 [26]: > 10 µM | GI 100% [26]: 5.16 µM
